Holding throughout (type): in vivo
Assay [1] relates to Glomerella lagenarium; Anamorph: Colletotrichum lagenarium. Kind of assay: Cucumber Anthracnose (COLLLA) disease control. As to conditions: Colletotrichum orbiculare, topical, 24 h, 1 Day Protectant, read-out: Disease Control COLLLA 1 DP.
Another assay deals with Uncinula necator. Kind of assay: Grape Powdery Mildew (UNCINE) disease control. As to conditions: Erysiphe necator, topical, 24 h, 1 Day Protectant, read-out: Disease Control UNCINE 1 DP. In short, it runs like this: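 Month-old Carignane grape seedlings were sprayed to run-off with compound in acetone diluted 1:9 in water containing 110 ppm Triton X-100, then inoculated 24 h later by shaking spores from infected leaves. Plants were held in a greenhouse at 20 °C until disease developed, and severity (0–100%) was scored with control calculated relative to untreated plants.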

The next assay relates to Erysiphe cichoracearum. The experiment in a line: Powdery Mildew of Cucumber (ERYSCI) disease control. The settings on record: Golovinomyces cichoracearum, topical, 24 h, 1 Day Protectant, read-out: Disease Control ERYSCI 1 DP. In short, it runs like this:
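Cucumber seedlings aged 12–14 days were sprayed to run-off with compound in acetone/water containing 110 ppm Triton X-100, then inoculated with spore suspension 24 h later. Plants were held at 20 °C until disease was fully expressed. Disease control was derived from percent severity on treated versus untreated leaves.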

Another assay deals with Alternaria solani. The experiment in a line: Tomato Early Blight (ALTESO) disease control. As to conditions: Alternaria solani, topical, 24 h, 1 Day Protectant, read-out: Disease Control ALTESO 1 DP. In short, it runs like this:
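Acetone solutions diluted in nine volumes of water with 110 ppm Triton X-100, sprayed to run-off on 12–14-day-old tomato plants (Outdoor girl). Alternaria solani spores applied 24 h after treatment, then 100% RH dew chambers at 20° C. and a 22° C. growth room. Percent control from disease severity (0–100%) relative to untreated plants.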

For the molecule `CCOCC(=O)OCOc1c(OC)ccnc1C(=O)N[C@H]1CCC[C@H](CCF)[C@@H](OCC(C)C)[C@H](C)OC1=O` [Compound F181], the pest or weed control at 100 ppm was 80 to 100% in assay [1], 0 to 80% with Uncinula necator, 0 to 80% with Erysiphe cichoracearum and 80 to 100% with Alternaria solani.

In the case of `CCOCC(=O)OCOc1c(OC)ccnc1C(=O)N[C@H]1CCC[C@H](CCOC)[C@@H](Oc2ccccc2)[C@H](C)OC1=O` [Compound F183], the pest or weed control at 100 ppm in assay [1] lay in the range of 80 to 100%; with Uncinula necator it was 80 to 100%; in the assay on Erysiphe cichoracearum, 0 to 80%; in the assay with Alternaria solani, 0 to 80%.

On to `CCCO[C@@H]1[C@@H](Cc2ccccc2)CCC[C@H](NC(=O)c2nccc(OC)c2OC(=O)CCOC)C(=O)O[C@H]1C` [Compound F198], for which the pest or weed control at 100 ppm (in assay [1]; in the assay on Uncinula necator; in the assay with Erysiphe cichoracearum; in the assay with Alternaria solani) was 80 to 100% each time.

The values above are taken from patent US9265253B2, “Use of macrocyclic picolinamides as fungicides” (DOW AGROSCIENCES LLC, priority 2013, dated 2016).
